Experiments:
E. coli β-glucuronidase = E. coli β-glucuronidase (Escherichia coli (strain K12), UniProt P05804); experiment: β-Glucuronidase assay (4MUG hydrolysis, fluorescence); type: biochemical; details: Table 1; compounds from 35,000 compound diversity set library; 50 pM enzyme, 125 uM 4MUG; read-out: IC50, β-Glucuronidase Inhibitory activity of phenoxythiophene sulfonamides
rats = details: background, reference 14; cited from earlier work

Structure (SMILES) | IC50 (E. coli β-glucuronidase) [µM] | reversal of SN-38-related epithelial cell death and severe diarrhea from CPT-11 (rats)
COc1ccc2ccc(Oc3ccc([S+](=O)([O-])NCc4cccc5ccccc45)s3)cc2c1 [BRITE-354458] | 175 | –
O=[S+]([O-])(NCc1cccc2ccccc12)c1ccc(Oc2ccc3c(c2)CCCC3)s1 [BRITE-355030] | 149 | –
O=[S+]([O-])(NCc1cccc2ccccc12)c1ccc(Oc2ccc(OCc3ccccc3)cc2)s1 [BRITE-355169] | 153 | –
O=[S+]([O-])(NCc1cccc2ccccc12)c1cc(Cl)c(Oc2cccc(-c3ccccc3)c2)s1 [BRITE-355180] | 102 | –
COc1cccc(OC)c1Oc1sc([S+](=O)([O-])NCc2cccc3ccccc23)cc1Cl [BRITE-355201] | 202 | –
O=[S+]([O-])(NCc1cccc2ccccc12)c1cc(Cl)c(Oc2cccnc2)s1 [BRITE-355211] | 192 | –
Cc1cc(Oc2sc([S+](=O)([O-])NCc3cccc4ccccc34)cc2Cl)cc(C(C)C)c1 [BRITE-355214] | 135 | –
CCCOc1ccc(Oc2sc([S+](=O)([O-])NCc3cccc4ccccc34)cc2Cl)cc1 [BRITE-355221] | 402 | –
O=[S+]([O-])(NCc1cccc2ccccc12)c1cc(Cl)c(Oc2ccc3c(c2)OCO3)s1 [BRITE-355233] | 376 | –
Cc1cc(C)cc(Oc2sc([S+](=O)([O-])NCc3cccc4ccccc34)cc2Cl)c1 [BRITE-355234] | 152 | –
O=[S+]([O-])(NCc1cccc2ccccc12)c1cc(Cl)c(Oc2ccc3c(c2)CCCC3)s1 [BRITE-355244] | 123 | –
O=[S+]([O-])(NCc1cccc2ccccc12)c1cc(Cl)c(Oc2ccccc2)s1 [BRITE-355253] | 444 | –
O=C1OC(C(O)C(=O)O)C(O)C1O (stereo not shown) [saccharic acid 1,4-lactone] | – | partially reversed
